Like-named read-outs stand apart in the source and are kept apart here.
Legend:
[1] = test system: human breast cancer MCF7 cells; assay: In vitro cell viability assay (MTT), MCF7; type: cell-based
Description: [The source words this procedure for another cell line and reports this cell line under the same test.] The cell viability assay measures how effectively different compounds (i.e., different conjugates or structures) kill cancer cells in vitro. The IC50 value is the compound concentration at which the conjugate kills 50% of the cells, which inhibits 50% of the cells from remaining alive.
For the cell viability assay, the actual potency IC50 values depend on a number of factors, including the length of incubation time. Thus, the cell viability assay is particularly effective for determining the relative toxicity of different compounds.
(§1) Human glioblastoma cells (U87-luc) were seeded in 96-well plates ([…]) and were treated with the compounds of interest at concentrations 1, 3, 10, 30, and 100 µM. At the end of the experiments, the cell cultures were supplemented with MTT reagent (3-(4,5-dimethylthiazol-2-yl)-2,5-diphenyltetrazolium bromide) and incubated for an additional 4 hours. Then, dimethyl sulfoxide ([…]) was added to the cell culture to dissolve the formazan crystals and incubated for 10 minutes at room temperature. The absorbance rate of the cell cultures was read at 570 nm by using a Microplate Reader. All the reactions were performed in triplicate. Measured data of cellular proliferation were calculated using viability values of untreated control cells (100%).

[2] = test system: human glioblastoma U87 cells; assay: In vitro cell viability assay (MTT), U87; type: cell-based; settings: for IC50: U87 cells; for cell viability result in words: U87 and MCF7 cells
Description: The cell viability assay measures how effectively different compounds (i.e., different conjugates or structures) kill cancer cells in vitro.
For the cell viability assay, the actual potency IC50 values depend on a number of factors, including the length of incubation time.
as §1

CWR-R1ca-Luc cells = assay: In vivo efficacy, prostate cancer tumors in nude mice; settings: for average prostate cancer tumor volume: 0.5 mole of compound/kg mouse each day, subcutaneous, 3 weeks; for IVIS average photons (viable tumor tissue) / average prostate cancer tumor weight: at conclusion of 3 weeks, daily subcutaneous dosing
Description: (§2) The animal model and treatment used a total of 50 Athymic Nude-Foxn1^nu male mice which were purchased from Envigo, Indianapolis, IN, USA. The mice were housed in a clean room under strict conditions. Under the approval of the Institutional Animal Care and Use Committee, all animal protocols were carried out in line with the National Institute of Health Guide for the Care and Use of Laboratory Animals. Once cells reached 70-80% confluency, the cells were collected and counted. About 2×10^6 CWR-R1ca-Luc cells were mixed in 1:1 Matrigel® Matrix (Life Sciences, Tewksbury, MA) and injected subcutaneously into the flank of each mouse. Measurement of tumor volume of prostate cancer tumors of mice and mice weights were taken biweekly. When a palpable tumor developed, size 300-500 mm^3, mice were randomized into 10 groups with 5 mice in each group. The corresponding treatment was injected subcutaneously every day per each group up to 3 weeks. Before starting the treatment, the mice were injected with luciferin 150 mg/kg intraperitoneally. After 20 minutes, the mice were anesthetized in an induction chamber using 2% isoflurane, and bioluminescence images were taken using IVIS® Lumina III In Vivo Imaging System (PerkinElmer, Boston, MA) as a base line. Before the end of the experiment, the imaging process was repeated for all mice groups.
(§3) All compounds were dosed at 0.5 mole of compound/kg mouse each day. Thus, a 20 g mouse was dosed at […] of compound per day, and larger mice were dosed at correspondingly higher doses in proportionality to mouse body weight. […] The concentration of each formulation was adjusted so that each dose would be 10 μL solution/g mouse.
FIGS. 4A, 4B, 5, 6 and 7 all pertain to the same experiment conducted with mice having prostate cancer over a study period of three weeks.

[3] = Body weight of tumor-bearing mice (toxicity); type: in vivo; settings: daily subcutaneous dosing; for toxicity indicated by body weight: 3 weeks; for average body weight: at conclusion of 3 weeks
Description: as §2, §3
FIG. 7 is a bar graph of average body weight of the mice at the conclusion of the study period of three weeks for conjugate 59, conjugate 61, conjugate 62, MMAE chemo, and PBS (control), in accordance with embodiments of the present invention. Average body weight changes over the course of the study relative to control, particularly due to loss of body weight, which can relate to toxicity of the treatment group.

[4] = Solubility in PBS on formulation; type: physicochemical; settings: formulation for dosing
Description: as §3

integrin αvβ3 receptor = molecular target: T1, integrin αvβ3 receptor (Homo sapiens, UniProt P05106+P06756); assay: In vitro integrin αvβ3 binding assay; settings: immobilized integrin αvβ3; read-out: IC50, displacement of labelled integrin αvβ3 ligand
T1 construct: purchased ACRO Biosystems (Newark, DE) and/or Bioss Inc (Woburn, MA)
Description: The in vitro integrin αvβ3 binding assay measures the binding affinity for different compounds (i.e., different conjugates or structures) with immobilized integrin αvβ3 receptor. The IC50 value is the compound concentration at which the compound displaces 50% of a labelled integrin αvβ3 ligand from the integrin αvβ3 receptor, which inhibits 50% of the labelled integrin αvβ3 ligand from binding to the integrin αvβ3 receptor.
Ninety-six polystyrene microtiter plate was coated with fibrinogen and incubated at 4° C. overnight. The wells were blocked with 3% BSA for 2 hours at room temperature and were washed with buffer A (50 mM Tris/HCl, 100 mM NaCl, 1 mM CaCl2), 1 mM MgCl2, 1% BSA) three times. Integrins αvβ3 and increasing concentrations of the compound of interest were added and incubated for 2 hours at room temperature, and then wells were washed three times with buffer A and incubated with a streptavidin HRP conjugate (1:1000 in buffer A) for 1 hour at room temperature. Finally, wells were washed three times with buffer A and […] peroxidase substrate TMB was added, and the reaction was terminated after 30 minutes with 50 µL of 450 nm stop solution for TMB. Absorbance was determined at 450 nm with a Microplate Reader (Bio-Rad, Hercules, CA, USA). […]

[5] = test system: integrin αvβ3 expressing U87 cells; assay: In vitro cell adhesion assay (U87 cells to fibrinogen); type: cell-based, human; settings: 2 h, read-out: IC50, inhibition of cell adhesion to fibrinogen
Description: The cell adhesion assay is a cell-based assay that measures how well different compounds (i.e., different conjugates or structures) block the adhesion of integrin αvβ3 expressing U87 cells to fibrinogen, a macromolecule that binds to the integrin αvβ3 receptor. The IC50 value is the compound concentration at which the compound displaces 50% of the cell adhesion to fibrinogen, which inhibits 50% of the cells from adhering to fibrinogen.
The cell adhesion assay is a functional cell assay, so the conjugates cannot be used with chemotherapy attached, because the conjugates will release the chemo over the course of the testing, killing the cells so that no readout can be obtained. Thus, the full conjugate molecule (targeting moiety, PEG, cleavable linker) is used without the chemo for this assay. Two compounds (conjugate 74 and conjugate 59) used are slightly different integrin αvβ3 targeting pieces with a large PEG (PEG 35 and PEG39, respectively), and the VCP cleavable linker attached. […]
96-well microtiter plates were coated with up to […] fibrinogen per well in […] phosphate-buffered saline (PBS) and incubated at 4° C. overnight. […] After washing with PBS, the fluorescence intensity of adherent cells was measured at an emission wavelength of 530 nm using an excitation wavelength of 485 nm by using a Microplate Reader.

T1 sequence (P06756 31-992 limits assumed): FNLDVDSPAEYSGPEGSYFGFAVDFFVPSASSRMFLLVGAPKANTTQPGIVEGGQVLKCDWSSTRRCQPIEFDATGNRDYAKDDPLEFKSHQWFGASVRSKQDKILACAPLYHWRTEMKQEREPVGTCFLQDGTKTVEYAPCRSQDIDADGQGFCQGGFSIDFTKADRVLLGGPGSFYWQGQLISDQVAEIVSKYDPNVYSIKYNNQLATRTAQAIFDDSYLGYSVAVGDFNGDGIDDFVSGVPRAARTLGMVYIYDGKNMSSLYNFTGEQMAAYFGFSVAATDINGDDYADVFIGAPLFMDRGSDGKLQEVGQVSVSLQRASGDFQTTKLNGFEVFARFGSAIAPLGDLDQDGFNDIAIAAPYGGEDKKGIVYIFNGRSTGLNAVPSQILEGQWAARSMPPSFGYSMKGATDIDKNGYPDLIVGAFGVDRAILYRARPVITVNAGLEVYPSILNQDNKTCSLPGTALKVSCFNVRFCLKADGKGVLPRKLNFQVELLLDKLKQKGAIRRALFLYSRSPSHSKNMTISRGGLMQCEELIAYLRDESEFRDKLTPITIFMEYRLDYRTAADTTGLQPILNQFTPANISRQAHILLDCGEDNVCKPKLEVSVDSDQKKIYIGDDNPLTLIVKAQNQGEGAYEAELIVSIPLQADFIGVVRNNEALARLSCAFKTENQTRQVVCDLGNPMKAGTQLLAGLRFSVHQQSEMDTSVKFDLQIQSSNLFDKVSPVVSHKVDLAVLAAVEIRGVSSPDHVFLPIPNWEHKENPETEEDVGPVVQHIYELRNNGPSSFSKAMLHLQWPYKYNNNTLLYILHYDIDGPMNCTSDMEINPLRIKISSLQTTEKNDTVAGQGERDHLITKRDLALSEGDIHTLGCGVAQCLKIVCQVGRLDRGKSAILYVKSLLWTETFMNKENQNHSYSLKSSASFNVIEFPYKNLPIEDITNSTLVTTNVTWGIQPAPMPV
T1 sequence (P05106 27-718 limits assumed): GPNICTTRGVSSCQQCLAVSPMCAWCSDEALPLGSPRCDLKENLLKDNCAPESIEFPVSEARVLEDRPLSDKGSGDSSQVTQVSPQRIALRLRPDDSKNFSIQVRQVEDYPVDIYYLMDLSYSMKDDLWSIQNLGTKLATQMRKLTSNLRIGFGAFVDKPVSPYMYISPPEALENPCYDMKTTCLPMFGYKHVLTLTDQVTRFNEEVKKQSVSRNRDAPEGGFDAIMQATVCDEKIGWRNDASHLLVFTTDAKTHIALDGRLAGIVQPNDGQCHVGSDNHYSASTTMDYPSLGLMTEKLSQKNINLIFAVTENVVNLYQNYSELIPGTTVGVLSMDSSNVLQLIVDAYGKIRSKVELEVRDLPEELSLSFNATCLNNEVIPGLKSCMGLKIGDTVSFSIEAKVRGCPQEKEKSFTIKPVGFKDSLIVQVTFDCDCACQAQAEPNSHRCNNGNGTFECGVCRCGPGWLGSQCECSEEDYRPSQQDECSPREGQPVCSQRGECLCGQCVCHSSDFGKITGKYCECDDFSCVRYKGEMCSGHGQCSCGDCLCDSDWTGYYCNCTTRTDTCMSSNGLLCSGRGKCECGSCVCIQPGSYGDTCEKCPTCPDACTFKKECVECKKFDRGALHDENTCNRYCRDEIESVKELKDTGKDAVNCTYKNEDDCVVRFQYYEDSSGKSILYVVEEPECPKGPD

## Nc1ccn([C@@H]2O[C@H](CO)[C@@H](O)C2(F)F)c(=O)n1 [Gemcitabine, reference compound]
[1]; Homo sapiens
  IC50: 1790 nM

## CC[C@H](C)[C@@H](C(CC(=O)N1CCC[C@H]1[C@H](OC)[C@@H](C)C(=O)N[C@H](C)[C@@H](O)c1ccccc1)OC)N(C)C(=O)[C@@H](NC(=O)[C@@H](NC)C(C)C)C(C)C (some centres unmarked) [MMAE, monomethylauristatin E, reference compound]
[2]; Homo sapiens, U-87 MG
  IC50: 2.51 nM
[1]; Homo sapiens
  IC50: 3.85 nM
CWR-R1ca-Luc cells
  average prostate cancer tumor volume: smaller tumor volumes than the non-MMAE conjugate 59
  IVIS average photons (viable tumor tissue): smaller IVIS® numbers than the non-MMAE conjugate 59
  average prostate cancer tumor weight: smaller tumor weights than the non-MMAE conjugate 59
[3]
  toxicity indicated by body weight: high toxicity
  average body weight: a loss of body weight over the course of the experiment
[4]
  solubility in straight PBS: less soluble in straight PBS

## NC(=O)c1cccc2cn(-c3ccc([C@@H]4CCCNC4)cc3)nc12 [Niraparib, reference compound]
[2]; Homo sapiens, U-87 MG
  IC50: 155 nM

## CCc1c2c(nc3ccc(O)cc13)-c1cc3c(c(=O)n1C2)COC(=O)[C@]3(O)CC [SN38, reference compound]
[2]; Homo sapiens, U-87 MG
  IC50: 4.32 nM
[1]; Homo sapiens
  IC50: 5.67 nM

## CC(C)[C@H](NC(=O)CCc1cn(CCOCCOCCOCCOCCOCCOCCOCCOCCOCCOCCOCCOCCOCCOCCOCCOCCOCCOCCOCCOCCOCCOCCOCCOCCOCCOCCOCCOCCOCCOCCOCCOCCOCCOCCOCCNC(=O)CC[C@H](NS(=O)(=O)c2ccccc2)C(=O)O)nn1)C(=O)N[C@@H](CCCNC(N)=O)C(=O)Nc1ccc(COC(=O)N2CCCC(c3ccc(-n4cc5cccc(C(N)=O)c5n4)cc3)C2)cc1 (some centres unmarked) [conjugate 40]
Integrin αvβ3 receptor
  IC50: 3.36 ± 0.22 nM
[2]
  IC50: 1740 nM

## CC(C)[C@H](NC(=O)CCc1cn(CCOCCOCCOCCOCCOCCOCCOCCOCCOCCOCCOCCOCCOCCOCCOCCOCCOCCOCCOCCOCCOCCOCCOCCOCCOCCOCCOCCOCCOCCOCCOCCOCCOCCOCCOCCNC(=O)CCC(NS(=O)(=O)c2ccccc2)C(=O)O)nn1)C(=O)N[C@@H](CCCNC(N)=O)C(=O)Nc1ccc(COC(=O)Nc2ccn([C@@H]3O[C@H](CO)C(O)C3(F)F)c(=O)n2)cc1 (some centres unmarked) [conjugate 45]
Integrin αvβ3 receptor
  IC50: 0.84 ± 0.16 nM
[1]
  IC50: 3970 nM

## CC(C)[C@H](NC(=O)CCOCCOCCOCc1cn(CCOCCOCCOCCOCCOCCOCCOCCOCCOCCOCCOCCOCCOCCOCCOCCOCCOCCOCCOCCOCCOCCOCCOCCOCCOCCOCCOCCOCCOCCOCCOCCOCCOCCOCCOCCOCCC(=O)NC[C@H](NS(=O)(=O)c2ccccc2)C(=O)O)nn1)C(=O)N[C@@H](CCCNC(N)=O)C(=O)Nc1ccc(CO)cc1 [conjugate 59]
[5]
  IC50: 103 ± 1.7 nM

## CC[C@H](C)[C@@H]([C@@H](CC(=O)N1CCC[C@H]1[C@H](OC)[C@@H](C)C(=O)N[C@H](C)[C@@H](O)c1ccccc1)OC)N(C)C(=O)[C@@H](NC(=O)[C@H](C(C)C)N(C)C(=O)OCc1ccc(NC(=O)[C@H](CCCNC(N)=O)NC(=O)[C@@H](NC(=O)CCOCCOCCOCc2cn(CCOCCOCCOCCOCCOCCOCCOCCOCCOCCOCCOCCOCCOCCOCCOCCOCCOCCOCCOCCOCCOCCOCCOCCOCCOCCOCCOCCOCCOCCOCCOCCOCCOCCOCCOCCOCCC(=O)NC[C@H](NS(=O)(=O)c3ccccc3)C(=O)O)nn2)C(C)C)cc1)C(C)C [conjugate 61]
CWR-R1ca-Luc cells
  average prostate cancer tumor volume: inhibits tumor growth more than the PEG15 conjugate 62
  IVIS average photons (viable tumor tissue): much smaller than the smaller PEG15 conjugate 62 and MMAE alone
  average prostate cancer tumor weight: comparable to the smaller PEG15 MMAE conjugate 62
[3]
  toxicity indicated by body weight: mild toxicity
  average body weight: only a small difference compared to the PBS control

## CCc1c2c(nc3ccc(O)cc13)-c1cc3c(c(=O)n1C2)COC(=O)[C@@]3(CC)OC(=O)N(C)CCN(C)C(=O)OCc1ccc(NC(=O)[C@H](CCCNC(N)=O)NC(=O)[C@@H](NC(=O)CCc2cn(CCOCCOCCOCCOCCOCCOCCOCCOCCOCCOCCOCCOCCOCCOCCOCCOCCOCCOCCOCCOCCOCCOCCOCCOCCOCCOCCOCCOCCOCCOCCOCCOCCOCCOCCOCCOC)nn2)C(C)C)cc1 [conjugate 73]
[2]
  cell viability result in words: no activity
  IC50: > 10000 nM
[1]
  IC50: > 10000 nM

## CC(C)[C@H](NC(=O)CCc1cn(CCOCCOCCOCCOCCOCCOCCOCCOCCOCCOCCOCCOCCOCCOCCOCCOCCOCCOCCOCCOCCOCCOCCOCCOCCOCCOCCOCCOCCOCCOCCOCCOCCOCCOCCOCCNC(=O)CC[C@H](NS(=O)(=O)c2ccccc2)C(=O)O)nn1)C(=O)N[C@@H](CCCNC(N)=O)C(=O)Nc1ccc(CO)cc1 [conjugate 74]
[5]
  IC50: 54 ± 2.2 nM
[2]
  cell viability result in words: does not cause cell death
  IC50: > 10000 nM
[1]
  IC50: > 10000 nM

Source: US12624109B2, “αv-integrin targeted small molecule drug conjugates” (TargetThera LLC, priority 2023, dated 2026)
